In ChEMBL document CHEMBL5523684, “Development of a tetrahydroindazolone-based HDAC6 inhibitor with in-vivo anti-arthritic activity” (Bioorg Med Chem, 2024):

Columns and labels:
Homo sapiens = organism: Homo sapiens; test: Selectivity index, ratio of IC50 for inhibition of his-tagged human recombinant HDAC1 using fluor de lys-SIRT1 as substrate to IC50 for inhibition of N-terminal GST-tagged human recombinant HDAC6 expressed in Spodoptera frugiperda
[1] = biological target: T1, Protein deacetylase HDAC6 (Homo sapiens, UniProt Q9UBN7); test: Inhibition of N-terminal GST-tagged human recombinant HDAC6 expressed in Spodoptera frugiperda incubated for 60 mins by fluorescence based analysis
T1 sequence (Q9UBN7 whole entry): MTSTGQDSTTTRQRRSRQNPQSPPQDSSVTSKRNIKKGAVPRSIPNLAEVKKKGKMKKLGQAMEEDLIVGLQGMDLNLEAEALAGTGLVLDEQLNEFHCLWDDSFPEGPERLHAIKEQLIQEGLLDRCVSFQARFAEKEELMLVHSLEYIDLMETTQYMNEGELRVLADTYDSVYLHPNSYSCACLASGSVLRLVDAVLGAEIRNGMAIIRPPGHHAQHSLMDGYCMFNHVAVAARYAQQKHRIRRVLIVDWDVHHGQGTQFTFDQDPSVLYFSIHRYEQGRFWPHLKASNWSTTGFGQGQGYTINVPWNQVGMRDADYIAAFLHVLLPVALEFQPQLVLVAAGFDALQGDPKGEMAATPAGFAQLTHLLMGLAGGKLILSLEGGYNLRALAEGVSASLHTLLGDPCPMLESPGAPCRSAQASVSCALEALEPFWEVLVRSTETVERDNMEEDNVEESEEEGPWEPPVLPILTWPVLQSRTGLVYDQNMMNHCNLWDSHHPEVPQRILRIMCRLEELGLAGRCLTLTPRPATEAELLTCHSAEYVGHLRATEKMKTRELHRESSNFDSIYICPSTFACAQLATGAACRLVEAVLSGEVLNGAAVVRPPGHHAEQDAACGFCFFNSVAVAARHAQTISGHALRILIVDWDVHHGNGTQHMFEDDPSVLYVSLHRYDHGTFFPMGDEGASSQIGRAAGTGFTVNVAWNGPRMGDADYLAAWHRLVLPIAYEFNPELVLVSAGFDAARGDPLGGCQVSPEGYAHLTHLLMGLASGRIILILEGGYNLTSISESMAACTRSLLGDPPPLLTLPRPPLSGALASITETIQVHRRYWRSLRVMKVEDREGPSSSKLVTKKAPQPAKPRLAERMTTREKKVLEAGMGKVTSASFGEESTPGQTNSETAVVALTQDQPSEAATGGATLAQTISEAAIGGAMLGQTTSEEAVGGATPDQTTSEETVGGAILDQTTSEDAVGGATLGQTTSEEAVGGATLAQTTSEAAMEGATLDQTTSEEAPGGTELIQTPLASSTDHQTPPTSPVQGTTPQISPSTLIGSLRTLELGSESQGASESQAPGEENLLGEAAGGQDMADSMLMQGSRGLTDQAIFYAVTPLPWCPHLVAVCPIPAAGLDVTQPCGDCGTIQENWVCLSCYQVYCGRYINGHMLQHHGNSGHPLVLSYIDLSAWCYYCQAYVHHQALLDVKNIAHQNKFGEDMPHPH

Histone deacetylase 1 [2] = biological target: T2, Histone deacetylase 1 (Homo sapiens, UniProt Q13547); test: Inhibition of his-tagged human recombinant HDAC1 using fluor de lys-SIRT1 as substrate incubated for 60 mins by fluorescence based analysis
Histone deacetylase 1 [3] = biological target: T2, Histone deacetylase 1; test: Inhibition of HDAC1 (unknown origin)
[4] = biological target: T1, Protein deacetylase HDAC6; test: Inhibition of human recombinant HDAC6 using fluorescent peptide p53 (379 to 382 residues) RHKK(Ac) as substrate by fluorescence based analysis
Histone deacetylase 2 = Histone deacetylase 2 (Homo sapiens, UniProt Q92769); test: Inhibition of human recombinant HDAC2 using fluorescent peptide p53 (379 to 382 residues) RHKK(Ac) as substrate by fluorescence based analysis
[5] = biological target: T3, Polyamine deacetylase HDAC10 (Homo sapiens, UniProt Q969S8); test: Inhibition of human recombinant HDAC10 using fluorescent peptide p53 (379 to 382 residues) RHKK(Ac) as substrate by fluorescence based analysis
T3 sequence (Q969S8 whole entry): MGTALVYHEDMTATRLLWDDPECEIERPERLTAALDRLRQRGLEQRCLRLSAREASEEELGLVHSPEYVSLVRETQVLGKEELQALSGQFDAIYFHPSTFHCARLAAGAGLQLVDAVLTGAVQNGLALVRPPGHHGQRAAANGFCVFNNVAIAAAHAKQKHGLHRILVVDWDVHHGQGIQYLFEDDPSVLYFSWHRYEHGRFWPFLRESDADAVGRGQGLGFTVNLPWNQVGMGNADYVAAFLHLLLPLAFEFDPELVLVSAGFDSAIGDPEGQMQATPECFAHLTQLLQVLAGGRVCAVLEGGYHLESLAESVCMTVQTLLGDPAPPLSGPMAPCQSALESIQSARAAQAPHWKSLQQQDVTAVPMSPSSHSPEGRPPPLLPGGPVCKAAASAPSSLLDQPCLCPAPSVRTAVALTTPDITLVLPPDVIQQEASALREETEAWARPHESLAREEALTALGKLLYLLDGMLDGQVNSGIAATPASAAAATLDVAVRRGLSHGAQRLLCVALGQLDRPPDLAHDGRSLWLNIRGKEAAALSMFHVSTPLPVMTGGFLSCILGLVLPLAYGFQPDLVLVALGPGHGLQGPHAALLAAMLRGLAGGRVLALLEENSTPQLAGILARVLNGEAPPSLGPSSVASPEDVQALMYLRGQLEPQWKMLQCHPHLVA

Histone deacetylase 3 = Histone deacetylase 3 (Homo sapiens, UniProt O15379)
Sequence of Histone deacetylase 3 (O15379 whole entry): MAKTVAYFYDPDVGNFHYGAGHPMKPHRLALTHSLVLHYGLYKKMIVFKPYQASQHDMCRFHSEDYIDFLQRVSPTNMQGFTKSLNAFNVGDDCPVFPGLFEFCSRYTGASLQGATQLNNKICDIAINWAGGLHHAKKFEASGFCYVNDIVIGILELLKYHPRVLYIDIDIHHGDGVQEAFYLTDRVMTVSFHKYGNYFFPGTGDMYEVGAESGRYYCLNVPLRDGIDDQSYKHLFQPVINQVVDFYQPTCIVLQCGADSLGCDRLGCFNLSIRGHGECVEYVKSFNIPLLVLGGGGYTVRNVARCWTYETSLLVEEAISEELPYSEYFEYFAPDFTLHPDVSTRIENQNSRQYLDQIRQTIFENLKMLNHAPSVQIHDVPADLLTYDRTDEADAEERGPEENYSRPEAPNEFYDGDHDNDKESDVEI

T2 sequence (Q13547 whole entry): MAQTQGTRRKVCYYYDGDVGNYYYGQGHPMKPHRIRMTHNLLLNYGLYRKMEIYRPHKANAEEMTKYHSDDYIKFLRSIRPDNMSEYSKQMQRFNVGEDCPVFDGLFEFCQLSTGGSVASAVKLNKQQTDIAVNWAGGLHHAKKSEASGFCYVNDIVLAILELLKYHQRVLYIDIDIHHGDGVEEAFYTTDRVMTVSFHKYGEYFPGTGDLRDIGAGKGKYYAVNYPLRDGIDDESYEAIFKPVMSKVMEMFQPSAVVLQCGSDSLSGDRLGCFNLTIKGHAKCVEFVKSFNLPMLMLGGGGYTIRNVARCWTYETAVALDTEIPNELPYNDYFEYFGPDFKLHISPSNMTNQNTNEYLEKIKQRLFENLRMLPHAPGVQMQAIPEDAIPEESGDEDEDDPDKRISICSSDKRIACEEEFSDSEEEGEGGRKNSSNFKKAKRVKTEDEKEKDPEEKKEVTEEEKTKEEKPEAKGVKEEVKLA
Sequence of Histone deacetylase 2 (Q92769 whole entry, the tested form may be a part): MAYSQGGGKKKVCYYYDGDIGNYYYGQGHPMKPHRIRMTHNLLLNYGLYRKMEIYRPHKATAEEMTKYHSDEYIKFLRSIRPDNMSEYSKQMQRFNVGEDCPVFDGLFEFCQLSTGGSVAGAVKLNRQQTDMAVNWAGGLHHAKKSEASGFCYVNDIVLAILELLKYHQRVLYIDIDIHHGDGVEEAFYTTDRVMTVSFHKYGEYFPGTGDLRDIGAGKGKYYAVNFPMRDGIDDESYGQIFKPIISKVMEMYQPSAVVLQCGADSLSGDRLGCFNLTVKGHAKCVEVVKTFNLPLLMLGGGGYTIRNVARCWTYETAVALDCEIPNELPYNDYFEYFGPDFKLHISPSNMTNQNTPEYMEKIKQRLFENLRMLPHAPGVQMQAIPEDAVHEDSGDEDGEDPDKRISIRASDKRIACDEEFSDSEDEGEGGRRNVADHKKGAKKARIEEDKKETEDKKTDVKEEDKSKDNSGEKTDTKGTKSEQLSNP

Row | SMILES | Ratio IC50 (Homo sapiens) | IC50 [1] [nM] | other results
1 | CN1CCN(CC2CCc3c(c4ccccc4n3Cc3ccc(C(=O)NO)cc3)C2=O)CC1 (stereo not drawn) | 345 | 12 | –
2 | CC1(C)CC(=O)c2c(n(Cc3ccc(C(=O)NO)cc3)c3ccccc23)C1 | 345 | 12 | IC50 (Histone deacetylase 1 [2]): 4140 nM
3 | O=C(NO)c1ccc(Cn2c3c(c4cc(F)ccc42)C(=O)CCC3)cc1 | 328 | – | –
4 | O=C(NO)c1ccc(Cn2c3c(c4ccccc42)C(=O)C(CN2CCN(c4ccc(F)cc4)CC2)CC3)cc1 (stereo not drawn) | 661 | 8 | –
5 | CC(C)N1CCN(CC2CCc3c(c4cc(F)ccc4n3Cc3ccc(C(=O)NO)cc3)C2=O)CC1 (stereo not drawn) | 50.2 | – | –
6 | CCCCN1CCN(CC2CCc3c(c4cc(F)ccc4n3Cc3ccc(C(=O)NO)cc3)C2=O)CC1 (stereo not drawn) | 373 | 6 | –
7 | CC(C)(C)OC(=O)N1CCN(CC2CCc3c(c4cc(F)ccc4n3Cc3ccc(C(=O)NO)cc3)C2=O)CC1 (stereo not drawn) | 311 | – | –
8 | Cc1ccc(N2CCN(CC3CCc4c(c5ccccc5n4Cc4ccc(C(=O)NO)cc4)C3=O)CC2)cc1C (stereo not drawn) | 203 | 40 | –
9 | Cc1nn(Cc2ccc(C(=O)NO)cc2)c2c1C(=O)CC(C)(C)C2 | 135 | 12 | –
10 | CN1CCN(CC2C(=O)c3c(n(Cc4ccc(C(=O)NO)cc4)c4ccc(F)cc34)CC2(C)C)CC1 (stereo not drawn) | 182 | 2 | –
11 | CC1(C)Cc2c(c3cc(F)ccc3n2Cc2ccc(C(=O)NO)cc2)C(=O)C1CN1CCOCC1 (stereo not drawn) | 41.4 | – | –
12 | O=C(NO)c1ccc(Cn2c3c(c4cc(F)ccc42)C(=O)C(CN2CCOCC2)CC3)cc1 (stereo not drawn) | 828 | 5 | –
13 | O=C(NO)c1ccc(Cn2c3c(c4ccccc42)C(=O)C(CN2CCCCC2)CC3)cc1 (stereo not drawn) | 284 | 12 | –
14 | CC(C)(C)OC(=O)N1CCN(CC2CCc3c(c4ccccc4n3Cc3ccc(C(=O)NO)cc3)C2=O)CC1 (stereo not drawn) | 327 | – | –
15 | Cc1nccn1CC1CCc2c(c3cc(F)ccc3n2Cc2ccc(C(=O)NO)cc2)C1=O (stereo not drawn) | 570 | 9 | –
16 | Cc1cn(Cc2ccc(C(=O)NO)cc2)c2c1C(=O)CC(C)(C)C2 | 380 | 8 | –
17 | CC1(C)Cc2c(c3ccccc3n2Cc2ccc(C(=O)NO)cc2)C(=O)C1CN1CCOCC1 (stereo not drawn) | 153 | – | –
18 | Cc1c2c(n(Cc3ccc(C(=O)NO)cc3)c1C)CC(C)(C)CC2=O | 464 | 11 | –
19 | CC1CN(CC2CCc3c(c4ccccc4n3Cc3ccc(C(=O)NO)cc3)C2=O)CC(C)O1 (stereo not drawn) | 79.1 | 11 | IC50 (Histone deacetylase 1 [2]): 870 nM
20 | Cc1nccn1CC1C(=O)c2c(n(Cc3ccc(C(=O)NO)cc3)c3ccccc23)CC1(C)C (stereo not drawn) | 166 | 35 | –
21 | O=C(NO)c1ccc(Cn2c3c(c4ccccc42)CCCC3)cc1 | – | – | IC50 (Histone deacetylase 1 [3]): 10900 nM
22 | Cc1cn(Cc2ccc(C(=O)NO)cc2)c2c1C(=O)CCC2 | 543 | 2 | IC50 (Histone deacetylase 1 [2]): 1130 nM
23 | CCN1CCN(CC2CCc3c(c4cc(F)ccc4n3Cc3ccc(C(=O)NO)cc3)C2=O)CC1 (stereo not drawn) | 202 | 11 | –
24 | Cc1c2c(n(Cc3ccc(C(=O)NO)cc3)c1C)CCCC2=O | 705 | 4 | –
25 | CC1(C)CC(=O)c2c(n(Cc3ccc(C(=O)NO)cc3)c3ccc(Br)cc23)C1 | 42.4 | – | –
26 | CN1CCN(CC2CCc3c(c4cc(F)ccc4n3Cc3ccc(C(=O)NO)cc3)C2=O)CC1 (stereo not drawn) | 530 | 5 | IC50 [4]: 4 nM; IC50 (Histone deacetylase 2): > 20000 nM; IC50 [5]: > 20000 nM; IC50 (Histone deacetylase 3): > 20000 nM
27 | CCN1CCN(CC2CCc3c(c4ccccc4n3Cc3ccc(C(=O)NO)cc3)C2=O)CC1 (stereo not drawn) | 329 | 14 | –
